Where “and” joins values, the source holds several entries; their conditions need not be identical. Equal entries are not always repeated. Toxic doses and inconclusive results are not listed. No stated cut-off is given here; in the data, active means T/C of 150% or more; inactive means T/C below 125%.
Test system: L1210 leukemia ip in BDF1 mice, survival T/C
Assay: NCI In Vivo Anticancer Drug Screen. Data for tumor model L1210 Leukemia (intraperitoneal) in B6D2F1 (BDF1) mice
Conditions: endpoint: mean survival time, higher = longer survival
Method in brief: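 Transplantable tumor model; survival measured in treated vs vehicle control mice. Value = treated/control.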

[1] = dose: 100.0 mg/kg/injection, schedule: Q04DX003 (ip), vehicle: saline
[2] = dose: 200.0 mg/kg/injection, schedule: Q04DX003 (ip), vehicle: saline
[3] = dose: 400.0 mg/kg/injection, schedule: Q04DX003 (ip), vehicle: saline
[4] = dose: 100.0 mg/kg/injection, schedule: Q04DX003 (ip), vehicle: saline with Tween-80
[5] = dose: 200.0 mg/kg/injection, schedule: Q04DX003 (ip), vehicle: saline with Tween-80
[6] = dose: 400.0 mg/kg/injection, schedule: Q04DX003 (ip), vehicle: saline with Tween-80
[7] = dose: 50.0 mg/kg/injection, schedule: Q04DX002 (ip), vehicle: saline with Tween-80
[8] = dose: 100.0 mg/kg/injection, schedule: Q04DX002 (ip), vehicle: saline with Tween-80
[9] = dose: 200.0 mg/kg/injection, schedule: Q04DX002 (ip), vehicle: saline with Tween-80
[10] = dose: 100.0 mg/kg/injection, schedule: Q04DX003 (ip), vehicle: Klucel (hydroxypropylcellulose) (HPC)
[11] = dose: 200.0 mg/kg/injection, schedule: Q04DX003 (ip), vehicle: Klucel (hydroxypropylcellulose) (HPC)
[12] = dose: 400.0 mg/kg/injection, schedule: Q04DX003 (ip), vehicle: Klucel (hydroxypropylcellulose) (HPC)
[13] = dose: 100.0 mg/kg/injection, schedule: Q01DX009 (ip), vehicle: saline with Tween-80
[14] = dose: 200.0 mg/kg/injection, schedule: Q01DX009 (ip), vehicle: saline with Tween-80
[15] = dose: 400.0 mg/kg/injection, schedule: Q01DX009 (ip), vehicle: saline with Tween-80
[16] = dose: 100.0 mg/kg/injection, schedule: Q01DX001 (ip), vehicle: other
[17] = dose: 200.0 mg/kg/injection, schedule: Q01DX001 (ip), vehicle: other
[18] = dose: 400.0 mg/kg/injection, schedule: Q01DX001 (ip), vehicle: other

Measured: T/C

O=c1[nH]cc(-c2ccccc2)c(=O)[nH]1
inactive: dose: 100.0 mg/kg/injection, schedule: Q01DX009 (ip), vehicle: saline 98 % of control | [1] 95 % of control | dose: 200.0 mg/kg/injection, schedule: Q01DX009 (ip), vehicle: saline 104 % of control | [2] 95 % of control | dose: 400.0 mg/kg/injection, schedule: Q01DX009 (ip), vehicle: saline 104 % of control | [3] 101 % of control

C=CCOc1c(C)cc(C)cc1/C=C/C
inactive: [4] 94 % of control | [5] 97 % of control | [6] 96 % of control

O=[N+]([O-])c1ccc(SNc2ccc(NSc3ccc([N+](=O)[O-])cc3)cc2)cc1
inactive: dose: 25.0 mg/kg/injection, schedule: Q01DX001 (ip), vehicle: saline with Tween-80 96 % of control | dose: 50.0 mg/kg/injection, schedule: Q01DX001 (ip), vehicle: saline with Tween-80 100 % of control

COC1=C(C(=O)O)P(C)(=O)CC1 (stereo not drawn)
inactive: [7] 95 % of control | [8] 98 % of control | [9] 95 % of control

c1ccc(CN=C2c3ccccc3C3(c4ccccc4)C2N3Cc2ccccc2)cc1 (stereo not drawn)
inactive: dose: 100.0 mg/kg/injection, schedule: Q01DX009 (ip), vehicle: Klucel (hydroxypropylcellulose) (HPC) 103 % of control | [10] 98 % of control | dose: 200.0 mg/kg/injection, schedule: Q01DX009 (ip), vehicle: Klucel (hydroxypropylcellulose) (HPC) 103 % of control | [11] 101 % of control | dose: 400.0 mg/kg/injection, schedule: Q01DX009 (ip), vehicle: Klucel (hydroxypropylcellulose) (HPC) 103 % of control | [12] 97 % of control

O=NN(CC(F)(F)F)C(=O)NC1CCCCC1 (tested in a mixture with another compound)
inactive: dose: 8.0 mg/kg/injection, schedule: Q01DX001 (ip), vehicle: other 100 % of control | dose: 16.0 mg/kg/injection, schedule: Q01DX001 (ip), vehicle: other 95 % of control | dose: 31.0 mg/kg/injection, schedule: Q01DX001 (ip), vehicle: other 94 % of control | dose: 62.0 mg/kg/injection, schedule: Q01DX001 (ip), vehicle: other 97 % of control | dose: 125.0 mg/kg/injection, schedule: Q01DX001 (ip), vehicle: other 101 % of control | dose: 250.0 mg/kg/injection, schedule: Q01DX001 (ip), vehicle: other 94 % of control | dose: 375.0 mg/kg/injection, schedule: Q01DX001 (ip), vehicle: other 101 % of control

CC(=O)O[C@H]1C[C@@]2(C)[C@@H](C[C@@H](O)[C@H]3[C@@]4(C)CC[C@@H](O)[C@@H](C)[C@@H]4CC[C@@]32C)/C1=C(\CCC=C(C)C)C(=O)O
inactive: dose: 50.0 mg/kg/injection, schedule: Q01DX009 (sc), vehicle: steriod suspending solution 95 % of control | dose: 100.0 mg/kg/injection, schedule: Q01DX001 (ip), vehicle: carboxymethylcellulose (CMC) 97 % of control | dose: 100.0 mg/kg/injection, schedule: Q01DX009 (sc), vehicle: steriod suspending solution 95 % of control | dose: 100.0 mg/kg/injection, schedule: Q04DX003 (ip), vehicle: steriod suspending solution 102 % of control | dose: 200.0 mg/kg/injection, schedule: Q01DX001 (ip), vehicle: carboxymethylcellulose (CMC) 94 % of control | dose: 200.0 mg/kg/injection, schedule: Q01DX009 (sc), vehicle: steriod suspending solution 103 % of control | dose: 200.0 mg/kg/injection, schedule: Q04DX003 (ip), vehicle: steriod suspending solution 102 % of control | dose: 400.0 mg/kg/injection, schedule: Q01DX001 (ip), vehicle: carboxymethylcellulose (CMC) 90 % of control | dose: 400.0 mg/kg/injection, schedule: Q04DX003 (ip), vehicle: steriod suspending solution 101 % of control

CCn1c(COc2ccc(Cl)cc2Cl)c(COC(=O)c2cccc(Cl)c2)c2ccccc21
inactive: dose: 100.0 mg/kg/injection, schedule: Q01DX009 (ip), vehicle: carboxymethylcellulose (CMC) 98 % of control and 103 % of control | dose: 100.0 mg/kg/injection, schedule: Q04DX002 (ip), vehicle: carboxymethylcellulose (CMC) 101 % of control and 102 % of control | dose: 200.0 mg/kg/injection, schedule: Q01DX009 (ip), vehicle: carboxymethylcellulose (CMC) 97 % of control and 98 % of control | dose: 200.0 mg/kg/injection, schedule: Q04DX002 (ip), vehicle: carboxymethylcellulose (CMC) 94 % of control and 98 % of control | dose: 400.0 mg/kg/injection, schedule: Q01DX009 (ip), vehicle: carboxymethylcellulose (CMC) 87 % of control | dose: 400.0 mg/kg/injection, schedule: Q04DX002 (ip), vehicle: carboxymethylcellulose (CMC) 95 % of control and 91 % of control

Nc1ncnc2c1ncn2C1COC(CO)C1O (stereo not drawn)
inactive: dose: 100.0 mg/kg/injection, schedule: Q01DX001 (ip), vehicle: saline 103 % of control | dose: 200.0 mg/kg/injection, schedule: Q01DX001 (ip), vehicle: saline 107 % of control | dose: 400.0 mg/kg/injection, schedule: Q01DX001 (ip), vehicle: saline 107 % of control

CCC(=O)Nc1cccc(OC(=O)NCC(C)C)c1
inactive: [13] 92 % of control | [14] 94 % of control | [15] 91 % of control

Nc1ccc(N=Nc2ccccc2Cl)c(N)n1
inactive: dose: 50.0 mg/kg/injection, schedule: Q01DX001 (ip), vehicle: other 103 % of control | [16] 100 % of control | [17] 94 % of control | [18] 100 % of control

CCN(CC)CCOC(=O)C1C2CC3OC(=O)C1C3C2 (stereo not drawn)
inactive: [1] 108 % of control | [2] 95 % of control | [3] 92 % of control

CCCCNS(=O)(=O)c1n[nH]c(=O)[nH]c1=O
inactive: [16] 104 % of control | [17] 101 % of control | [18] 93 % of control

COc1cccc(C=NC2CC(C)CCC2C)c1OC (stereo not drawn)
inactive: [7] 90 % of control | [8] 93 % of control | [9] 87 % of control | dose: 400.0 mg/kg/injection, schedule: Q04DX002 (ip), vehicle: saline with Tween-80 90 % of control

C1C2CC3C1C1CN3C21 (stereo not drawn)
inactive: dose: 6.25 mg/kg/injection, schedule: Q01DX001 (ip), vehicle: saline 100 % of control | dose: 12.5 mg/kg/injection, schedule: Q01DX001 (ip), vehicle: saline 97 % of control | dose: 25.0 mg/kg/injection, schedule: Q01DX001 (ip), vehicle: saline 111 % of control

O=C(CC(O)C(Cl)(Cl)Cl)CC(O)C(Cl)(Cl)Cl (stereo not drawn)
inactive: dose: 100.0 mg/kg/injection, schedule: Q04DX002 (ip), vehicle: saline 96 % of control | dose: 200.0 mg/kg/injection, schedule: Q04DX002 (ip), vehicle: saline 107 % of control

NC(=O)c1ccc[n+](CC(=O)NCc2ccc(Cl)cc2)c1
inactive: [1] 93 % of control

CCC(C(=O)O)N1C(=O)C2C3CCC(C3)C2C1=O (stereo not drawn)
inactive: [4] 98 % of control | [5] 103 % of control | [6] 103 % of control

CCOC(=O)c1ccc(C(C)=O)o1
inactive: [10] 100 % of control | [11] 106 % of control | [12] 94 % of control

Oc1ccccc1N=CC1CCCCC1
inactive: [4] 87 % of control | [5] 88 % of control | [6] 92 % of control

C/C=C/CCCCCCCC(=O)OCCCC
inactive: [13] 101 % of control | [4] 103 % of control | [14] 107 % of control | [5] 97 % of control | [15] 95 % of control | [6] 98 % of control

— PubChem BioAssay AID248 (DTP/NCI, 2004)
